Read-outs that look alike come from different tables or passages of the source.

Assay [1] concerns MAC formation in normal human serum. Briefly: Human serum MAC formation assay (zymosan-coated plates, 50% normal human serum). Conditions: 50% normal human serum with EGTA, 37° C. 30 minutes. Here is the method:
MAC deposition assay using normal human serum was applied to evaluate compound potency under physiologically relevant conditions. Black Maxisorp plates (Thermo Fisher, 437111) were coated with preactivated zymosan (Complement Technology, B400) at 0.5 mg/mL in carbonate buffer (pH 9.5, Sigma, C3041) at room temperature overnight. Compounds were serial diluted 3-fold in 100% DMSO for a 10-point dose-response curve. Normal human serum (Complement Technology, NHS) was diluted to 50% (v/v) with the gelatin buffer (4.2 mM HEPES pH 7.4, 0.15 mM CaCl2, 141 mM NaCl, 4.5 mM MgCl2, 0.1% gelatin) containing 20 mM EGTA or 20 mM EDTA. In conical bottom 96-well plates, 1 μL compound and 99 μL of serum-EGTA were mixed. Serum-EDTA was used as baseline control. The serum-compound mixture was incubated at room temperature for 15 minutes before being transferred to the washed zymosan plate for complement activation at 37° C. for 30 minutes. The reaction was terminated by decanting the reaction mixture and adding blocking buffer (Thermo Fisher, 37539) for 20 minutes. MAC formation on the ELISA plate was detected using 0.2 μg/mL mouse anti-human C9 neoepitope monoclonal antibody (Thermo Fisher, MA5-33373) diluted in phosphate-buffered saline with 0.05% Tween-20 (PBST). A goat anti-mouse IgG-HRP antibody (Thermo Fisher, A16072) was used at 1:2000 in PBST as secondary antibody. After washing, the reaction was developed using QuantaBlu (Thermo Fisher, 15169) for 20 minutes at room temperature. The plates were read at 325 nm excitation and 420 nm emission wavelengths. Percent inhibition values were generated using the baseline (EDTA-serum) and the maximum control (EGTA-serum). An IC50 for each compound was calculated using 4-parameter logistic regression.

The next assay addresses human C3bBb (Homo sapiens (Human), UniProt P00751). Briefly: Human C3bBb enzyme assay (C3a generation from C3, ELISA). It is filed as biochemical. Conditions: read-out: Human C3b:Bb IC50 Avg. Here is the method:
Compounds disclosed herein were evaluated for their potency to inhibit human C3bBb in a biochemical assay. To generate active C3bBb complex in vitro, purified human C3b (Complement Technology, A114), CFB (Complement Technology, A135) and CFD (Complement Technology, A136) were mixed in a 1:1:1 ratio to a final concentration of 1 μM each in the C3bBb assay buffer (PBS pH 7.4, 100 μM NiCl2, 0.05% (w/v) CHAPS). The reaction mix was incubated at room temperature for 30 minutes on a rotating platform. […] On the day of the enzyme assay, a reaction mixture containing 3 nM C3bBb complex and 1 μM purified human C3 (Complement Technology, A113) was prepared in the C3bBb assay buffer. Compounds were serial diluted 3-fold in 100% DMSO for a 10-point dose-response curve. A 0.5 μL aliquot of diluted compound solution was transferred to a conical bottom 96-well plate, before 49.5 μL of the reaction mix was added to each well to initiate the reaction. The plate was incubated for 1 hour at room temperature. […] The generation of C3a from C3 by the C3bBb complex was measured using the MicroVue C3a Plus EIA ELISA kit (Quidel, A031). The concentration of C3a from each well was calculated using a standard curve. Percent inhibition values were generated using the baseline (C3 only) and the maximum control (DMSO instead of compound), and IC50 of each compound was calculated using 4-parameter logistic regression.

Where [2] appears, read: starred values: assay conducted with 1 nM C3b:Bb enzyme.
The mark [3] stands for this setting: 3 nM C3bBb complex, 1 μM human C3, 1 hour room temperature.

human C3bBb, sequence (P00751 260-764): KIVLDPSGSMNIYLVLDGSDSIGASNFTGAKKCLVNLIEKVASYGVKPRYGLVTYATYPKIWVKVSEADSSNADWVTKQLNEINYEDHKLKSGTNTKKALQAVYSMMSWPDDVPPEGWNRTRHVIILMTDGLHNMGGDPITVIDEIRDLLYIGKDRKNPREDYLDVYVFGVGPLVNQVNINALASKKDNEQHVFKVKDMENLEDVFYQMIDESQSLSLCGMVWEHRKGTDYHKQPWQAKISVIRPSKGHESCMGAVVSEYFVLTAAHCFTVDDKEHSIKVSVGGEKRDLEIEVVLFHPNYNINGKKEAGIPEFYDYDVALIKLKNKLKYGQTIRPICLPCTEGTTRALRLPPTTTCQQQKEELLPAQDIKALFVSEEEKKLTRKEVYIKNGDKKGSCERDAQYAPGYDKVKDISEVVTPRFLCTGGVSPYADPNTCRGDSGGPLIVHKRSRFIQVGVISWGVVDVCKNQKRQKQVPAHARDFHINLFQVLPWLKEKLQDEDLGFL
human C3bBb, sequence (P01024 23-667 partner): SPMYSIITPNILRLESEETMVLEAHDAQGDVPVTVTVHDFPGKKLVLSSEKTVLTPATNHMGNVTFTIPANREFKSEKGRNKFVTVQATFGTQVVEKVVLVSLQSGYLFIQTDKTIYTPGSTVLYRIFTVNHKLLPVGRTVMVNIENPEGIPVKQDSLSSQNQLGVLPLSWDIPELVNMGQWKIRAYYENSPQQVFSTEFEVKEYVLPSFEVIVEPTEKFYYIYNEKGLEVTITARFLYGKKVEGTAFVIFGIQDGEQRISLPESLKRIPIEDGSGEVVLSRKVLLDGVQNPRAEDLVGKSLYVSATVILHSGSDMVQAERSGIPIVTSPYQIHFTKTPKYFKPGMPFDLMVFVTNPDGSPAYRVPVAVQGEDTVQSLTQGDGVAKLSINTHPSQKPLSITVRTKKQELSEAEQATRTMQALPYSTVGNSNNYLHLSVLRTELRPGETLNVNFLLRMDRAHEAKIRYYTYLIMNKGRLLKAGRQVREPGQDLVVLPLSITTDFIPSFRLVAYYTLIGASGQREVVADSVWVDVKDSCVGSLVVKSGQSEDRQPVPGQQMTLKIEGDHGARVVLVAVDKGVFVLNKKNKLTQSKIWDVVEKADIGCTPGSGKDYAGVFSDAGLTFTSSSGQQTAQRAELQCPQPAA
human C3bBb, sequence (P01024 749-1663 partner): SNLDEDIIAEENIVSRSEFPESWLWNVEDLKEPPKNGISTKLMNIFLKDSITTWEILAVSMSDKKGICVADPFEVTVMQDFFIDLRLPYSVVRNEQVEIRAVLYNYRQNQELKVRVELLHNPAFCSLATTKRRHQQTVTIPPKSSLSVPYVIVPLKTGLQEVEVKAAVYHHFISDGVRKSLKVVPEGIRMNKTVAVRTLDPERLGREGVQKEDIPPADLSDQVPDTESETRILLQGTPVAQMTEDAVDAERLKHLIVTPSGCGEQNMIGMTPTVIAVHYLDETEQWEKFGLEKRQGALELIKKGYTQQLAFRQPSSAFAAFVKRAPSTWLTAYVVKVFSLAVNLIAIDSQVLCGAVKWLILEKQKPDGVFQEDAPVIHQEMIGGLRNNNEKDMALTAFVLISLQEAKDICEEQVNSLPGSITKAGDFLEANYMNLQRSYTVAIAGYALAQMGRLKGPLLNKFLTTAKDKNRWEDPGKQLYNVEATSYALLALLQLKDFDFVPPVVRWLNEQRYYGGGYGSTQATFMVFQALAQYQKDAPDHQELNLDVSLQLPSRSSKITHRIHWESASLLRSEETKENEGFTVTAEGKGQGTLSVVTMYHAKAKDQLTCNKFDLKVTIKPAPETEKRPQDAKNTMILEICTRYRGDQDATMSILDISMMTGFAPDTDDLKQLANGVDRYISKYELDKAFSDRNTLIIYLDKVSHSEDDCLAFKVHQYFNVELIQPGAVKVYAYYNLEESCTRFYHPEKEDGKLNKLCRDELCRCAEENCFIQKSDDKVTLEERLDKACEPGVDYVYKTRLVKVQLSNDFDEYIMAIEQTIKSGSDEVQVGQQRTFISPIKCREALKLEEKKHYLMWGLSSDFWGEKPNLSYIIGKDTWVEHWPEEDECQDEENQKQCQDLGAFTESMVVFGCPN

Usually IC50 stands for the concentration at which inhibition is half-maximal. `COc1cc(C)c2[nH]ccc2c1CN1CC[C@]2(C[C@H]1c1ccc(C(=O)O)cc1)C[C@@H](C(F)(F)F)C2` (single isomer, unassigned) [Example 49, 4-((2R,4s,6S)-7-((5-methoxy-7-methyl-1H-indol-4-yl)methyl)-2-(trifluoromethyl)-7-azaspiro[3.5]nonan-6-yl)benzoic acid or 4-((2S,4r,6S)-7-((5-methoxy-7-methyl-1H-indol-4-yl)methyl)-2-(trifluoromethyl)-7-azaspiro[3.5]nonan-6-yl)benzoic acid]: the IC50 in assay [1] is less than 100 nM; at human C3bBb (setting [2]), less than 10 nM.
Regarding `COc1cc(C)c2[nH]ccc2c1CN1CCC2(C[C@H]1c1ccc(C(=O)O)cc1)CC(F)(F)C2` [Example 45, (S)-4-(2,2-difluoro-7-((5-methoxy-7-methyl-1H-indol-4-yl)methyl)-7-azaspiro[3.5]nonan-6-yl)benzoic acid], the IC50 in assay [1] was less than 100 nM; on human C3bBb (setting [2]) it was less than 10 nM.
For `COc1cc(C)c2[nH]ccc2c1CN1CC[C@]2(CCC(F)(F)C2)C[C@H]1c1ccc(C(=O)O)cc1` (single isomer, unassigned) [Example 36, 4-(5R,7S)-(2,2-difluoro-8-((5-methoxy-7-methyl-1H-indol-4-yl)methyl)-8-azaspiro[4.5]decan-7-yl)benzoic acid or 4-(5S,7S)-(2,2-difluoro-8-((5-methoxy-7-methyl-1H-indol-4-yl)methyl)-8-azaspiro[4.5]decan-7-yl)benzoic acid], in that order: less than 100 nM and less than 10 nM.
On to `COc1cc(C)c2[nH]ccc2c1CN1CCN(CC2CC(F)(F)C2)C[C@H]1c1ccc(C(=O)O)cc1` [Example 67, (R)-4-(4-((3,3-difluorocyclobutyl)methyl)-1-((5-methoxy-7-methyl-1H-indol-4-yl)methyl)piperazin-2-yl)benzoic acid], for which the IC50 lay in the range of 300 to 500 nM in assay [1] and 50 to 100 nM at human C3bBb (setting [2]).
In the same order, the values of `COc1cc(C)c2[nH]ccc2c1CN1CC[C@H](OCC(F)(F)F)C[C@H]1c1ccc(C(=O)O)cc1` [Example 85, 4-((2S,4S)-1-((5-methoxy-7-methyl-1H-indol-4-yl)methyl)-4-(2,2,2-trifluoroethoxy)piperidin-2-yl)benzoic acid] are 100 to 200 nM and less than 10 nM.
`COc1cc(C)c2[nH]ccc2c1CN1CC[C@H](NS(N)(=O)=O)C[C@H]1c1ccc(C(=O)O)cc1` (racemic) [Example 16, (±)-trans-4-(1-((5-methoxy-7-methyl-1H-indol-4-yl)methyl)-4-(sulfamoylamino)piperidin-2-yl)benzoic acid]: the IC50 in assay [1] is 300 to 500 nM; at human C3bBb (setting [3]), greater than 100 nM.
Turning to `COc1cc(C)c2[nH]ccc2c1CN1CCN(CC(F)F)C[C@H]1c1ccc(C(=O)O)cc1` [Example 66, (R)-4-(4-(2,2-difluoroethyl)-1-((5-methoxy-7-methyl-1H-indol-4-yl)methyl)piperazin-2-yl)benzoic acid], the IC50 in assay [1] is 100 to 200 nM; on human C3bBb (setting [2]), 25 to 50 nM.
With `COc1cc(C)c2[nH]ccc2c1CN1CC[C@H](N2CC(C(F)(F)F)C2)C[C@H]1c1ccc(C(=O)O)cc1` [Example 81, 4-((2S,4S)-1-((5-methoxy-7-methyl-1H-indol-4-yl)methyl)-4-(3-(trifluoromethyl)azetidin-1-yl)piperidin-2-yl)benzoic acid], the IC50 was less than 100 nM in assay [1] and less than 10 nM at human C3bBb (setting [2]).
`COc1cc(C)c2[nH]ccc2c1CN1CC[C@H](N2CC(OC(F)(F)F)C2)C[C@H]1c1ccc(C(=O)O)cc1` [Example 72, 4-((2S,4S)-1-((5-methoxy-7-methyl-1H-indol-4-yl)methyl)-4-(3-(trifluoromethoxy)azetidin-1-yl)piperidin-2-yl)benzoic acid]: the IC50 in assay [1] was in the range of 200 to 300 nM; on human C3bBb (setting [2]), 25 to 50 nM.
For `COc1cc(C)c2[nH]ccc2c1CN1CC[C@]2(C[C@H]1c1ccc(C(=O)O)cc1)C[C@@](C)(O)C2` (single isomer, unassigned) [Example 60, 4-((2R,4s,6S)-2-hydroxy-7-((5-methoxy-7-methyl-1H-indol-4-yl)methyl)-2-methyl-7-azaspiro[3.5]nonan-6-yl)benzoic acid or 4-((2S,4r,6S)-2-hydroxy-7-((5-methoxy-7-methyl-1H-indol-4-yl)methyl)-2-methyl-7-azaspiro[3.5]nonan-6-yl)benzoic acid], in that order: 100 to 200 nM and 10 to 25 nM.
As for `COc1cc(C)c2[nH]ccc2c1CN1CC[C@]2(C[C@H]1c1ccc(C(=O)O)cc1)C[C@@H](F)C2` (single isomer, unassigned) [Example 63, 4-((2R,4s,6S)-2-fluoro-7-((5-methoxy-7-methyl-1H-indol-4-yl)methyl)-7-azaspiro[3.5]nonan-6-yl)benzoic acid or 4-((2S,4r,6S)-2-fluoro-7-((5-methoxy-7-methyl-1H-indol-4-yl)methyl)-7-azaspiro[3.5]nonan-6-yl)benzoic acid], the IC50 in assay [1] is less than 100 nM; at human C3bBb (setting [2]) it was less than 10 nM.
Regarding `COc1cc(C)c2[nH]ccc2c1CN1CC[C@H](N2CC(C#N)C2)C[C@H]1c1ccc(C(=O)O)cc1` [Example 73, 4-((2S,4S)-4-(3-cyanoazetidin-1-yl)-1-((5-methoxy-7-methyl-1H-indol-4-yl)methyl)piperidin-2-yl)benzoic acid], the IC50 is 100 to 200 nM in assay [1] and less than 10 nM at human C3bBb (setting [2]).
For the molecule `COc1cc(C)c2[nH]ccc2c1CN1CC[C@H](n2cc(F)cn2)C[C@H]1c1ccc(C(=O)O)cc1` [Example 1, 4-((2S,4S)-4-(4-fluoro-1H-pyrazol-1-yl)-1-((5-methoxy-7-methyl-1H-indol-4-yl)methyl)piperidin-2-yl)benzoic acid], the IC50 in assay [1] is greater than 500 nM; on human C3bBb (setting [3]) it was 50 to 100 nM.
Regarding `COc1cc(C)c2[nH]ccc2c1CN1CC[C@H](n2cc(C#N)cn2)C[C@H]1c1ccc(C(=O)O)cc1` [Example 10, 4-((2S,4S)-4-(4-cyano-1H-pyrazol-1-yl)-1-((5-methoxy-7-methyl-1H-indol-4-yl)methyl)piperidin-2-yl)benzoic acid], the 50% inhibitory concentration (IC50) in assay [1] is 300 to 500 nM; on human C3bBb (setting [3]), 50 to 100 nM.
As for `COc1cc(C)c2[nH]ccc2c1CN1CC[C@H](c2ccccc2)C[C@H]1c1ccc(C(=O)O)cc1` (racemic) [Example 37, (±)-trans-4-(1-((5-methoxy-7-methyl-1H-indol-4-yl)methyl)-4-phenylpiperidin-2-yl)benzoic acid], the IC50 is greater than 500 nM in assay [1] and greater than 100 nM on human C3bBb (setting [3]).
In the case of `COc1cc(C)c2[nH]ccc2c1CN1CC[C@H](NC2CC(F)(F)C2)C[C@H]1c1ccc(C(=O)O)cc1` [Example 24, 4-((2S,4S)-4-((3,3-difluorocyclobutyl)amino)-1-((5-methoxy-7-methyl-1H-indol-4-yl)methyl)piperidin-2-yl)benzoic acid], the IC50 is 200 to 300 nM in assay [1] and 10 to 25 nM at human C3bBb (setting [2]).
In the case of `COc1cc(C)c2[nH]ccc2c1CN1CC[C@]2(C[C@H]1c1ccc(C(=O)O)cc1)C[C@@H](C(F)(F)F)C2` (single isomer, unassigned) [Example 48, 4-((2R,4s,6S)-7-((5-methoxy-7-methyl-1H-indol-4-yl)methyl)-2-(trifluoromethyl)-7-azaspiro[3.5]nonan-6-yl)benzoic acid or 4-((2S,4r,6S)-7-((5-methoxy-7-methyl-1H-indol-4-yl)methyl)-2-(trifluoromethyl)-7-azaspiro[3.5]nonan-6-yl)benzoic acid], the results for the IC50 (in assay [1]; on human C3bBb (setting [2])) were less than 100 nM and less than 10 nM, respectively.
In the case of `COc1cc(C)c2[nH]ccc2c1CN1CC[C@H](N2CC(S(C)(=O)=O)C2)C[C@H]1c1ccc(C(=O)O)cc1` [Example 79, 4-((2S,4S)-1-((5-methoxy-7-methyl-1H-indol-4-yl)methyl)-4-(3-(methylsulfonyl)azetidin-1-yl)piperidin-2-yl)benzoic acid], the IC50 in assay [1] lay in the range of 100 to 200 nM; at human C3bBb (setting [2]), 50 to 100 nM.

(Values after patent US20250289804A1, “SUBSTITUTED INDOLE COMPOUNDS AND METHODS OF USE THEREOF” (NOVARTIS PHARMA AG, priority 2021, published 2025).)
